Results on 26 compounds are retold here after ChEMBL document CHEMBL1134910 (Bioorg Med Chem Lett, 2002).

The target of assay [1] is Adenosine receptor A2a (Sus scrofa).
A further assay addresses Adenosine receptor A2a (Rattus norvegicus, UniProt P30543).
The target in the next assay is T1, Adenosine receptor A1 (Homo sapiens, UniProt P30542).
T1 sequence (P30542 whole entry): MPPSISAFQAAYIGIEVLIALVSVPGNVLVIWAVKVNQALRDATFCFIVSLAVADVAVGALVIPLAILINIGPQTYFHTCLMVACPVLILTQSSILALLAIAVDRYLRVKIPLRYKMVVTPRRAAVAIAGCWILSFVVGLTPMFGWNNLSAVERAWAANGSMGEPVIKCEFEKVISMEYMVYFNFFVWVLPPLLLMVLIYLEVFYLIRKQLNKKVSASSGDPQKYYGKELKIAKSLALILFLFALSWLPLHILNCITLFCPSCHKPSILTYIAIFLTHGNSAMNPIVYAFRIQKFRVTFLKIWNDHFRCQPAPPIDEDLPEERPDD
The assay is described as follows: Binding affinity for adenosine (ADO) A1 receptor in CHO cells. The class given is cell-based.

The target of the next assay is T2, Adenosine receptor A3 (Homo sapiens, UniProt P0DMS8).
T2 sequence (P0DMS8 whole entry): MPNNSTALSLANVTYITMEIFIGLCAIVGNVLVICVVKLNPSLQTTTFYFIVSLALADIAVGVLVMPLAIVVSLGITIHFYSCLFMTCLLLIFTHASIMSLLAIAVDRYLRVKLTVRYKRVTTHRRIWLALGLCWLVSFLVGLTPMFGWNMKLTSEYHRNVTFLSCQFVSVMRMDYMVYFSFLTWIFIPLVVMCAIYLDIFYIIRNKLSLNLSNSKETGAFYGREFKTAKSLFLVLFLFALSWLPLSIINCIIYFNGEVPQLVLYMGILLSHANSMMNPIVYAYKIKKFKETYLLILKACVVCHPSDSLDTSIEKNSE
The assay is described as follows: Binding affinity for Adenosine A3A receptor.

Bounds are passed on as bounds.

Sequence of Adenosine receptor A2a (P30543 whole entry): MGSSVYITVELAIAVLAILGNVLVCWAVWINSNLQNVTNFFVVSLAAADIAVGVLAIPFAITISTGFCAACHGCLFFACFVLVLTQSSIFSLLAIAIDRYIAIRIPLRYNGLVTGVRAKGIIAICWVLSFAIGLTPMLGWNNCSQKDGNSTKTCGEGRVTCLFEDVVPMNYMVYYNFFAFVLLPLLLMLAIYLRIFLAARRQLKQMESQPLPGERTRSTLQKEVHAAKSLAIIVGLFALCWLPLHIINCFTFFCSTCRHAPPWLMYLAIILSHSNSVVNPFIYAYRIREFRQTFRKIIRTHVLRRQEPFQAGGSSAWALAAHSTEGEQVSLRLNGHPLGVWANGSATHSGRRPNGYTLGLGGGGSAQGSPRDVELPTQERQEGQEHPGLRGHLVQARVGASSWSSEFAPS

With `CN(C)C(=O)c1cnn(-c2nc(N)c3ncn([C@@H]4O[C@H](CO)[C@@H](O)[C@H]4O)c3n2)c1`, the values for the Ki (in assay [1]; on Adenosine receptor A2a) were 440 nM and 140 nM, respectively.
With `CCCNC(=O)c1cnn(-c2nc(N)c3ncn([C@@H]4O[C@H](CO)[C@@H](O)[C@H]4O)c3n2)c1`, the Ki – broadly, the dissociation constant of the complex between target and ligand, obtained from inhibition or displacement – in assay [1] turned out to be 120 nM; on Adenosine receptor A2a it was 50 nM.
The matching figures for `CC(C)(C)c1ccc(Cn2cc(-c3nc(N)c4ncn([C@@H]5O[C@H](CO)[C@@H](O)[C@H]5O)c4n3)cn2)cc1`: 2420 nM and 5290 nM.
As for `Cc1cc(-c2ccccc2)nn1-c1nc(N)c2ncn([C@@H]3O[C@H](CO)[C@@H](O)[C@H]3O)c2n1`, the Ki in assay [1] was > 100000 nM.
For the compound `Nc1nc(-c2cn[nH]c2)nc2c1ncn2[C@@H]1O[C@H](CO)[C@@H](O)[C@H]1O`, the Ki (in assay [1]; at Adenosine receptor A2a) was > 100000 nM in each case.
Consider `Nc1nc(-c2cnn(Cc3ccccc3)c2)nc2c1ncn2[C@@H]1O[C@H](CO)[C@@H](O)[C@H]1O`, for which the Ki amounted to 1580 nM in assay [1] and 1610 nM on Adenosine receptor A2a.
The matching figures for `CNC(=O)Cn1cc(-c2nc(N)c3ncn([C@@H]4O[C@H](CO)[C@@H](O)[C@H]4O)c3n2)cn1`: > 100000 nM and > 100000 nM.
For `Nc1nc(-c2cnn(CCCC3CCCCC3)c2)nc2c1ncn2[C@@H]1O[C@H](CO)[C@@H](O)[C@H]1O`, the results for the Ki (in assay [1]; at Adenosine receptor A2a) were 6680 nM and 2620 nM, respectively.
In the same order, the values of `CCNC(=O)Cn1cc(-c2nc(N)c3ncn([C@@H]4O[C@H](CO)[C@@H](O)[C@H]4O)c3n2)cn1` are > 100000 nM and > 100000 nM.
The matching figures for `Nc1nc(-c2cnn(CC(=O)O)c2)nc2c1ncn2[C@@H]1O[C@H](CO)[C@@H](O)[C@H]1O`: > 100000 nM and > 100000 nM.
In the same order, the values of `C=CCCCn1cc(-c2nc(N)c3ncn([C@@H]4O[C@H](CO)[C@@H](O)[C@H]4O)c3n2)cn1` are 1710 nM and 470 nM.
In the case of `Nc1nc(-c2cnn(CCc3ccccc3)c2)nc2c1ncn2[C@@H]1O[C@H](CO)[C@@H](O)[C@H]1O`, the inhibitory constant (Ki) in assay [1] was found to be 5900 nM; at Adenosine receptor A2a it was 2260 nM.
Regarding `COc1ccc(-c2cnn(-c3nc(N)c4ncn([C@@H]5O[C@H](CO)[C@@H](O)[C@H]5O)c4n3)c2)cc1`, the figures for the inhibition constant (Ki) (in assay [1]; on Adenosine receptor A2a) were 560 nM and 190 nM, respectively.
As for `CNC(=O)c1cnn(-c2nc(N)c3ncn([C@@H]4O[C@H](CO)[C@@H](O)[C@H]4O)c3n2)c1` [REGADENOSON ANHYDROUS], the Ki was > 16500 nM at Adenosine receptor A1 and > 10000 nM at Adenosine receptor A3.
`Nc1nc(N/N=C\C2CCCCC2)nc2c1ncn2[C@@H]1O[C@H](CO)[C@@H](O)[C@H]1O` came in with an inhibition constant Ki on Adenosine receptor A2a of 66 nM.
As for `CCCc1c(C)nn(-c2nc(N)c3ncn([C@@H]4O[C@H](CO)[C@@H](O)[C@H]4O)c3n2)c1C`, in assay [1], the Ki was > 100000 nM.
Take `Nc1nc(-c2cnn(CC3CCCCC3)c2)nc2c1ncn2[C@@H]1O[C@H](CO)[C@@H](O)[C@H]1O`: the Ki amounted to 880 nM in assay [1] and 220 nM at Adenosine receptor A2a.
The matching figures for `CCCCCCCCCCn1cc(-c2nc(N)c3ncn([C@@H]4O[C@H](CO)[C@@H](O)[C@H]4O)c3n2)cn1`: > 100000 nM and 6110 nM.
For `CCCCCn1cc(-c2nc(N)c3ncn([C@@H]4O[C@H](CO)[C@@H](O)[C@H]4O)c3n2)cn1`, the Ki in assay [1] was 2140 nM; on Adenosine receptor A2a it was 2590 nM; at Adenosine receptor A3, > 10000 nM.
For the compound `CCOC(=O)c1cnn(-c2nc(N)c3ncn([C@@H]4O[C@H](CO)[C@@H](O)[C@H]4O)c3n2)c1`, the Ki in assay [1] came to 1280 nM; on Adenosine receptor A2a it was 60 nM.
In the same order, the values of `CCNC(=O)c1cnn(-c2nc(N)c3ncn([C@@H]4O[C@H](CO)[C@@H](O)[C@H]4O)c3n2)c1` are 380 nM and 60 nM.
For the compound `Cn1cc(-c2nc(N)c3ncn([C@@H]4O[C@H](CO)[C@@H](O)[C@H]4O)c3n2)cn1`, the Ki (in assay [1]; on Adenosine receptor A2a) was > 100000 nM throughout.
Take `CN(C)C(=O)Cn1cc(-c2nc(N)c3ncn([C@@H]4O[C@H](CO)[C@@H](O)[C@H]4O)c3n2)cn1`: the Ki in assay [1] was > 100000 nM; at Adenosine receptor A2a it was 21000 nM.
In the same order, the values of `NC(=O)c1cnn(-c2nc(N)c3ncn([C@@H]4O[C@H](CO)[C@@H](O)[C@H]4O)c3n2)c1` are 1350 nM and 350 nM.
On to `Cc1ccc(-c2cnn(-c3nc(N)c4ncn([C@@H]5O[C@H](CO)[C@@H](O)[C@H]5O)c4n3)c2)cc1`, for which the values for the inhibition constant Ki (in assay [1]; on Adenosine receptor A2a) were 490 nM and 190 nM, respectively.
As for `CCCCc1c(C)nn(-c2nc(N)c3ncn([C@@H]4O[C@H](CO)[C@@H](O)[C@H]4O)c3n2)c1C`, in assay [1], the inhibitory constant (Ki) is > 100000 nM.
